The results in this text go back to patent publication US20150353495A1 (PORTOLA PHARMACEUTICALS, INC., priority 2010, published 2015).

Common to all, as to type: biochemical
The target in one test is T1, JAK3 (Homo sapiens, UniProt P52333).
T1 construct: 5 μl of catalytic domain recombinant Kinase enzyme+Tyr peptide substrate (Invitrogen, CA); purchased Invitrogen
The test can be described thus: Z'-LYTE kinase assay JAK3. The essentials:
(§1)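 Catalytic-domain recombinant kinase was incubated with Tyr6 FRET peptide, ATP and compound (1% DMSO final) for 1 h at room temperature. Protease development followed for 1 h, cleaving only non-phosphorylated peptide. Inhibition of phosphorylation was read as coumarin/fluorescein FRET fluorescence.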

The next test has as its target T2, JAK2 (Homo sapiens, UniProt O60674).
T2 construct: 5 μl of catalytic domain recombinant Kinase enzyme+Tyr peptide substrate (Invitrogen, CA); purchased Invitrogen
In words: Z'-LYTE kinase assay JAK2. The essentials: as §1

The target in the next test is T3, JAK1 (Homo sapiens, UniProt P23458).
T3 construct: 5 μl of catalytic domain recombinant Kinase enzyme+Tyr peptide substrate (Invitrogen, CA); purchased Invitrogen
The test can be described thus: Z'-LYTE kinase assay JAK1. The essentials: as §1

T1 sequence (P52333 822-1111 limits assumed): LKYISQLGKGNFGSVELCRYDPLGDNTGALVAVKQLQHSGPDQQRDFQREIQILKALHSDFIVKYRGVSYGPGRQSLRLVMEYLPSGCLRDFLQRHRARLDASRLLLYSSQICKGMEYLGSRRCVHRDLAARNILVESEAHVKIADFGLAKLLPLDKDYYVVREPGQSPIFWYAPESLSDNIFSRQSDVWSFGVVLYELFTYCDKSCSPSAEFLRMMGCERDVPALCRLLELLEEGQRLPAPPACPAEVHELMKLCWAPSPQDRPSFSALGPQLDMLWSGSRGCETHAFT
T2 sequence (O60674 849-1124 limits assumed): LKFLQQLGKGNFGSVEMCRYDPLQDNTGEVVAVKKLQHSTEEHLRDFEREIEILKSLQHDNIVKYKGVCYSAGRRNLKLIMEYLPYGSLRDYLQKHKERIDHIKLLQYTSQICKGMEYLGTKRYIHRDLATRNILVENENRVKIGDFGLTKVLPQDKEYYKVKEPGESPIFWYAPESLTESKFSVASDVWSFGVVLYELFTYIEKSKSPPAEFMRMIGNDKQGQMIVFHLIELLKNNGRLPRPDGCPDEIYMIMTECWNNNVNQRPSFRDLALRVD
T3 sequence (P23458 875-1153 limits assumed): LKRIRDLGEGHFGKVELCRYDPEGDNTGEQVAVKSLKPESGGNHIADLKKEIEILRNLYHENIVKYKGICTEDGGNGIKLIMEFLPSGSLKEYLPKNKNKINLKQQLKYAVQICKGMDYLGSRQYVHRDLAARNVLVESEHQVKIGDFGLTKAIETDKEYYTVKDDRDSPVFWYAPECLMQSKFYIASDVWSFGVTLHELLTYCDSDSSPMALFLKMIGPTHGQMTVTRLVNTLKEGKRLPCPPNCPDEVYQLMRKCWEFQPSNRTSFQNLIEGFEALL

A word on the IC50: it is the point on the concentration scale where inhibition reaches its midpoint. Read a low IC50 as greater potency in that assay. `CN(C)CC(C)(C)CNc1cc(Nc2ccc(C3CCOCC3)cc2)ncc1C(N)=O` [Example 171, 4-(3-(dimethylamino)-2,2-dimethylpropylamino)-6-(4-(tetrahydro-2H-pyran-4-yl)phenylamino)nicotinamide]: the IC50 is 100 to 1000 nM on JAK3, above 1000 nM against JAK2 and above 1000 nM on JAK1.

Regarding `NC(=O)c1cnc(Nc2ccc(C3CCOCC3)cc2)cc1NCc1nccs1` [Example 172, 6-(4-(tetrahydro-2H-pyran-4-yl)phenylamino)-4-(thiazol-2-ylmethylamino)nicotinamide], the IC50 lay within 10 to 100 nM on JAK3, 100 to 1000 nM against JAK2 and 100 to 1000 nM at JAK1.

In the case of `Cn1cc(CNc2cc(Nc3ccc(C4CCOCC4)cc3)ncc2C(N)=O)cn1` [Example 173, 4-((1-methyl-1H-pyrazol-4-yl)methylamino)-6-(4-(tetrahydro-2H-pyran-4-yl)phenylamino)nicotinamide], the IC50 at JAK3 is 100 to 1000 nM; against JAK2 it was above 1000 nM; against JAK1, above 1000 nM.

For `NC(=O)c1cnc(Nc2ccc(C3CCOCC3)cc2)cc1NCc1ccccn1` [Example 174, 4-(pyridin-2-ylmethylamino)-6-(4-(tetrahydro-2H-pyran-4-yl)phenylamino)nicotinamide], the IC50 on JAK3 is 10 to 100 nM; on JAK2, 100 to 1000 nM; on JAK1, above 1000 nM.

In the case of `NC(=O)c1cnc(Nc2ccc(C3CCOCC3)cc2)cc1NCc1ncccn1` [Example 175, 4-(pyrimidin-2-ylmethylamino)-6-(4-(tetrahydro-2H-pyran-4-yl)phenylamino)nicotinamide], the IC50 at JAK3 is 100 to 1000 nM; at JAK2, above 1000 nM; at JAK1 it was above 1000 nM.

As to `CCC(=O)N1CCC(c2ccc(Nc3cc(NCC4CCCC4)c(C(N)=O)cn3)cc2)CC1` [Example 176, 4-(cyclopentylmethylamino)-6-(4-(1-propionylpiperidin-4-yl)phenylamino)nicotinamide], the IC50 was 10 to 100 nM on JAK3, 100 to 1000 nM against JAK2 and 100 to 1000 nM at JAK1.

`CCC(=O)N1CCC(c2ccc(Nc3cc(NCc4nccs4)c(C(N)=O)cn3)cc2)CC1` [Example 177, 6-(4-(1-propionylpiperidin-4-yl)phenylamino)-4-(thiazol-2-ylmethylamino)nicotinamide]: the IC50 against JAK3 was in the range of 10 to 100 nM; at JAK2, 100 to 1000 nM; against JAK1, 100 to 1000 nM.

As for `CCC(=O)N1CCC(c2ccc(Nc3cc(NCc4cnn(C)c4)c(C(N)=O)cn3)cc2)CC1` [Example 178, 4-((1-methyl-1H-pyrazol-4-yl)methylamino)-6-(4-(1-propionylpiperidin-4-yl)phenylamino)nicotinamide], the IC50 is 100 to 1000 nM against JAK3, above 1000 nM on JAK2 and above 1000 nM on JAK1.

With `CCC(=O)N1CCC(c2ccc(Nc3cc(NCc4ccccn4)c(C(N)=O)cn3)cc2)CC1` [Example 179, 6-(4-(1-propionylpiperidin-4-yl)phenylamino)-4-(pyridin-2-ylmethylamino)nicotinamide], the IC50 against JAK3 was 10 to 100 nM; against JAK2, 100 to 1000 nM; against JAK1, above 1000 nM.

On to `CCC(=O)N1CCC(c2ccc(Nc3cc(NCc4ncccn4)c(C(N)=O)cn3)cc2)CC1` [Example 180, 6-(4-(1-propionylpiperidin-4-yl)phenylamino)-4-(pyrimidin-2-ylmethylamino)nicotinamide], for which the IC50 was 100 to 1000 nM at JAK3, above 1000 nM against JAK2 and above 1000 nM at JAK1.

With `NC(=O)c1cnc(Nc2ccc(C3CCOCC3)cc2)cc1NCc1ccncn1` [Example 181, 4-(pyrimidin-4-ylmethylamino)-6-(4-(tetrahydro-2H-pyran-4-yl)phenylamino)nicotinamide], the IC50 against JAK3, against JAK2 and against JAK1 was above 1000 nM in each case.

With `Cn1c(CNc2cc(Nc3ccc(C4CCOCC4)cc3)ncc2C(N)=O)nc2ccccc21` [Example 182, 4-((1-methyl-1H-benzo[d]imidazol-2-yl)methylamino)-6-(4-(tetrahydro-2H-pyran-4-yl)phenylamino)nicotinamide], the IC50 against JAK3, against JAK2 and on JAK1 was above 1000 nM each time.

Take `Cn1ccnc1CNc1cc(Nc2ccc(C3CCOCC3)cc2)ncc1C(N)=O` [Example 183, 4-((1-methyl-1H-imidazol-2-yl)methylamino)-6-(4-(tetrahydro-2H-pyran-4-yl)phenylamino)nicotinamide]: the IC50 at JAK3 lay in the range of 10 to 100 nM; against JAK2, 100 to 1000 nM; at JAK1, 100 to 1000 nM.

With `C#CCNc1cc(Nc2ccc(C3CCOCC3)cc2)ncc1C(N)=O` [Example 184, 4-(prop-2-ynylamino)-6-(4-(tetrahydro-2H-pyran-4-yl)phenylamino)nicotinamide], the IC50 against JAK3 was 100 to 1000 nM; on JAK2 it was above 1000 nM; against JAK1, above 1000 nM.

Take `NC(=O)c1cnc(Nc2ccc(C3CCOCC3)cc2)cc1NCc1cccnc1` [Example 185, 4-(pyridin-3-ylmethylamino)-6-(4-(tetrahydro-2H-pyran-4-yl)phenylamino)nicotinamide]: the IC50 was in the range of 10 to 100 nM on JAK3, 100 to 1000 nM against JAK2 and 100 to 1000 nM against JAK1.

Regarding `CC(C)[C@H](C)Nc1cc(Nc2ccc(C3CCOCC3)cc2)ncc1C(N)=O` [Example 186, (S)-4-(3-methylbutan-2-ylamino)-6-(4-(tetrahydro-2H-pyran-4-yl)phenylamino)nicotinamide], the IC50 at JAK3 was in the range of 10 to 100 nM; against JAK2, 100 to 1000 nM; at JAK1, 100 to 1000 nM.

As for `CCC(=O)N1CCC(c2ccc(Nc3cc(N[C@H](C)C(C)C)c(C(N)=O)cn3)cc2)CC1` [Example 189, (R)-4-(3-methylbutan-2-ylamino)-6-(4-(1-propionylpiperidin-4-yl)phenylamino)nicotinamide], the figures for the IC50 on JAK3, on JAK2 and against JAK1 were 1 to 10 nM, 10 to 100 nM and 10 to 100 nM, respectively.

For `CCC(=O)N1CCC(c2ccc(Nc3cc(N[C@H](C)C(C)(C)C)c(C(N)=O)cn3)cc2)CC1` [Example 190, (R)-4-(3,3-dimethylbutan-2-ylamino)-6-(4-(1-propionylpiperidin-4-yl)phenylamino)nicotinamide], the results for the IC50 against JAK3, on JAK2 and against JAK1 were 1 to 10 nM, 10 to 100 nM and 10 to 100 nM, respectively.

For the compound `CCC(=O)N1CCC(c2ccc(Nc3cc(N[C@H](C)C4CCCCC4)c(C(N)=O)cn3)cc2)CC1` [Example 191, (R)-4-(1-cyclohexylethylamino)-6-(4-(1-propionylpiperidin-4-yl)phenylamino)nicotinamide], the IC50 against JAK3 is 100 to 1000 nM; against JAK2, above 1000 nM; against JAK1 it was above 1000 nM.

Consider `CCC(=O)N1CCC(c2ccc(Nc3cc(NCC4CCCCC4)c(C(N)=O)cn3)cc2)CC1` [Example 192, 4-(cyclohexylmethylamino)-6-(4-(1-propionylpiperidin-4-yl)phenylamino)nicotinamide], for which the IC50 at JAK3 is 10 to 100 nM; against JAK2, 100 to 1000 nM; at JAK1, above 1000 nM.

`CCC(=O)N1CCC(c2ccc(Nc3cc(NCC4(c5ccccc5)CC4)c(C(N)=O)cn3)cc2)CC1` [Example 194, 4-((1-phenylcyclopropyl)methylamino)-6-(4-(1-propionylpiperidin-4-yl)phenylamino)nicotinamide]: the values for the IC50 on JAK3, against JAK2 and at JAK1 were 100 to 1000 nM, above 1000 nM and above 1000 nM, respectively.

As for `NC(=O)c1cnc(Nc2ccc(C3CCOCC3)cc2)cc1NCc1cn(CCN2CCCCC2)nn1` [Example 201, 4-((1-(2-(piperidin-1-yl)ethyl)-1H-1,2,3-triazol-4-yl)methylamino)-6-(4-(tetrahydro-2H-pyran-4-yl)phenylamino)nicotinamide], the IC50 against JAK3, on JAK2 and at JAK1 was above 1000 nM in each case.

`CCC(=O)N1CCC(c2ccc(Nc3cc(N[C@H](C)C4CC4)c(C(N)=O)cn3)cc2)CC1` [Example 202, (R)-4-(1-cyclopropylethylamino)-6-(4-(1-propionylpiperidin-4-yl)phenylamino)nicotinamide]: the 50% inhibitory concentration (IC50) against JAK3 was 10 to 100 nM; against JAK2, 100 to 1000 nM; at JAK1 it was 100 to 1000 nM.

Regarding `CCC(=O)N1CCC(c2ccc(Nc3cc(NCc4c(F)cccc4F)c(C(N)=O)cn3)cc2)CC1` [Example 203, 4-(2,6-difluorobenzylamino)-6-(4-(1-propionylpiperidin-4-yl)phenylamino)nicotinamide], the IC50 against JAK3 is 1 to 10 nM; on JAK2, 10 to 100 nM; against JAK1, 100 to 1000 nM.

On to `NC(=O)c1cnc(Nc2cccc(C3CCOCC3)c2)cc1NCc1cccc(F)c1` [Example 204, 4-(3-fluorobenzylamino)-6-(3-(tetrahydro-2H-pyran-4-yl)phenylamino)nicotinamide], for which the IC50 is 1 to 10 nM on JAK3, 10 to 100 nM against JAK2 and 100 to 1000 nM at JAK1.

Consider `NC(=O)c1cnc(Nc2cccc(C3CCOCC3)c2)cc1NCc1cccc(F)c1F` [Example 205, 4-(2,3-difluorobenzylamino)-6-(3-(tetrahydro-2H-pyran-4-yl)phenylamino)nicotinamide], for which the results for the IC50 against JAK3, on JAK2 and against JAK1 were 1 to 10 nM, 10 to 100 nM and 100 to 1000 nM, respectively.

Take `NC(=O)c1cnc(Nc2cccc(C3CCOCC3)c2)cc1NCc1cc(F)cc(F)c1` [Example 206, 4-(3,5-difluorobenzylamino)-6-(3-(tetrahydro-2H-pyran-4-yl)phenylamino)nicotinamide]: the IC50 against JAK3 fell in the range of 1 to 10 nM; at JAK2 it was 10 to 100 nM; against JAK1, 100 to 1000 nM.

Turning to `NC(=O)c1cnc(Nc2cccc(C3CCOCC3)c2)cc1NCc1cc(F)ccc1F` [Example 207, 4-(2,5-difluorobenzylamino)-6-(3-(tetrahydro-2H-pyran-4-yl)phenylamino)nicotinamide], the IC50 on JAK3 lay within 1 to 10 nM; against JAK2, 10 to 100 nM; against JAK1 it was 100 to 1000 nM.
